Laboratory results taken from ChEMBL document CHEMBL1201862, “PubChem BioAssay data set” (2004).
Calls of active or inactive are those of the source.

Columns and labels:
[1] = target: Lysine-specific demethylase 4C (Homo sapiens, UniProt Q9H3R0); experiment: GASC-1 (JMJD2C) histone demethylase inhibitors, dose response, biochemical, DELFIA europium, cherry-picked samples (AID 488835); assay type: functional
[2] = target: T1, Mannose-6-phosphate isomerase (Homo sapiens, UniProt P34949); experiment: human PMI inhibitors, high substrate, primary screen, biochemical, fluorescence intensity, high mannose 6-phosphate (AID 1220)
T1 sequence (P34949 whole entry): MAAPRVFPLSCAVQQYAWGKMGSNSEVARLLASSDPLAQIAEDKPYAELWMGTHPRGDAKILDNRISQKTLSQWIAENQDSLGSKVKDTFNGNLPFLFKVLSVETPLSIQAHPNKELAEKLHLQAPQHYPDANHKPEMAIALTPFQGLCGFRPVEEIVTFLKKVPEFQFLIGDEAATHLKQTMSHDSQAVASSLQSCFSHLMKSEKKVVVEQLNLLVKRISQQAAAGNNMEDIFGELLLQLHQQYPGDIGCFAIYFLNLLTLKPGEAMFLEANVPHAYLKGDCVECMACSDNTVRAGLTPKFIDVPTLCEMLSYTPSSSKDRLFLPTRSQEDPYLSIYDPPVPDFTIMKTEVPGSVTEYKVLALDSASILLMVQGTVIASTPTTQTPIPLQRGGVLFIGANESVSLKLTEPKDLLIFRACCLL

[3] = target: Lysine-specific demethylase 4A (Homo sapiens, UniProt O75164); experiment: JMJD2A histone demethylase inhibitors, dose response, selectivity assay for GASC-1 inhibitor project, biochemical, DELFIA europium, cherry-picked samples (AID 488840)
[4] = target: T2, RNA-binding protein pos-1 (Caenorhabditis elegans, UniProt G5EF15); experiment: inhibitors of POS-1/mex-3 RNA binding, dose response, biochemical, fluorescence polarization (AID 1964);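 note: purified POS-1 fused to maltose binding protein made in E. coli; potency of compounds blocking POS-1 binding to fluorescent RNA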
T2 sequence (G5EF15 whole entry): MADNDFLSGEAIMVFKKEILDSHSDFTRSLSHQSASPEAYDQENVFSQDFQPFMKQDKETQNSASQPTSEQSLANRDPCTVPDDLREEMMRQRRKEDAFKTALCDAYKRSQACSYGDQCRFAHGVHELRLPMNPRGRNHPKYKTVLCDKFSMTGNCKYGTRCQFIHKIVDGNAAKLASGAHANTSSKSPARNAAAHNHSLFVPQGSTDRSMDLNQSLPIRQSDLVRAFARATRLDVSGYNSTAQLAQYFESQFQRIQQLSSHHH

[5] = target: T3, Zinc finger protein mex-5 (Caenorhabditis elegans, UniProt Q9XUB2); experiment: MEX-5/TCR-2 RNA interaction inhibitors, dose response, biochemical, C. elegans, fluorescence polarization (AID 1960)
T3 sequence (Q9XUB2 whole entry): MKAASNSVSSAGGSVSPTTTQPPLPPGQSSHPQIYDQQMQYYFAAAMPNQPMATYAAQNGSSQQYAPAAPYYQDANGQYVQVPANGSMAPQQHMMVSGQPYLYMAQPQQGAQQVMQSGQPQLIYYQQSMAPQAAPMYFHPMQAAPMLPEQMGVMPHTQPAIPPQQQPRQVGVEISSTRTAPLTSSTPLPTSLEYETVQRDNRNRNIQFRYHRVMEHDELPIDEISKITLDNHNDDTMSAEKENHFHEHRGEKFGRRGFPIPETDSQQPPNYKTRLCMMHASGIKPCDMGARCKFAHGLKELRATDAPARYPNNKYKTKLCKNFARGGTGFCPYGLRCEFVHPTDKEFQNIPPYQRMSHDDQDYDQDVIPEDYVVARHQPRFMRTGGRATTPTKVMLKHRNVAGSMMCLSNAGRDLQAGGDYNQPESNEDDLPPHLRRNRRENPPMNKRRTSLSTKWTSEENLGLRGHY

Exodeoxyribonuclease V = Exodeoxyribonuclease V (Escherichia coli (strain K12), UniProt P04993+P07648+P08394); experiment: E. coli RecBCD inhibitors, dose response, counter-screen for AddAB inhibitor project, absorbance, V66 E. coli, mutant T4 phage (AID 492957); assay type: functional, cell-based, Escherichia coli str. K-12 substr. MG1655
[6] = Escherichia coli growth inhibition, dose response, counter-screen for MEX-5/POS-1 RNA-binding inhibitor project, luminescence, NEB5alpha (AID 1959); assay type: functional
[7] = Counterscreen for AddAB inhibitors: absorbance-based bacterial cell-based high throughput dose response assay for inhibitors of bacterial viability. [Related pubchem assays (depositor defined):AID435030, AID449728, AID449731, AID488942, AID488955, AID488956]; assay type: functional
[8] = target: T4, Dual specificity protein phosphatase 3 (Homo sapiens, UniProt P51452); experiment: VHR1 phosphatase inhibitors, primary screen, biochemical, absorbance, uHTS (AID 1654)
[9] = target: T5, Dual specificity protein phosphatase 6 (Rattus norvegicus, UniProt Q64346); experiment: MKP-3 phosphatase inhibitors, primary screen, biochemical, rat enzyme, in vitro (AID 425)
T5 sequence (Q64346 whole entry): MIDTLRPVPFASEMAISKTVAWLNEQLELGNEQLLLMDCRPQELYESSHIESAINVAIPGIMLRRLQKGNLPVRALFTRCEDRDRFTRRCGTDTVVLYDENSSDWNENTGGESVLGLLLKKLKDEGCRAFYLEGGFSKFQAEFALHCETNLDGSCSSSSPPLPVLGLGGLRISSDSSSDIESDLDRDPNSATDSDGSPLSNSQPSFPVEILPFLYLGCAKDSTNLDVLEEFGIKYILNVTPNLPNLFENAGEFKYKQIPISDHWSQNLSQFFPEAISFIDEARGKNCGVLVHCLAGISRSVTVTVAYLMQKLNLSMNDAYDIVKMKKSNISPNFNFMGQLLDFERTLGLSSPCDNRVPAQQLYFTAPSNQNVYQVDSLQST

Genome polyprotein = Genome polyprotein (dengue virus type 2, UniProt P29990); experiment: Dengue-2 NS5 methyltransferase inhibitors, primary screen, biochemical, confirmation dose response (AID 588689); assay type: functional
Streptococcus = experiment: Group A Streptococcus viability loss, dose response, counter-screen for streptokinase expression inhibitor project, luminescence, BacTiterGlo (AID 1915); assay type: functional, organism-based;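 note: potency for reduction of bacterial viability or growth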
[10] = test system: Streptococcus sp. 'group A'; experiment: growth inhibition of control SK(-) GAS strain, dose response, counter-screen for streptokinase expression inhibitor project, luminescence, kanamycin, BacTiterGlo, confirmation (AID 1900); assay type: functional, organism-based
Streptokinase A = target: T6, Streptokinase A (Streptococcus pyogenes serotype M1, UniProt P10520); experiment: S. pyogenes streptokinase expression inhibitors, potency, dose response, plasminogen activation absorbance, OD405 (AID 1914); assay type: functional, Streptococcus pyogenes M1 GAS;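 note: secreted streptokinase activity via plasminogen activation per viability signal from cell pellet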
T6 sequence (P10520 whole entry): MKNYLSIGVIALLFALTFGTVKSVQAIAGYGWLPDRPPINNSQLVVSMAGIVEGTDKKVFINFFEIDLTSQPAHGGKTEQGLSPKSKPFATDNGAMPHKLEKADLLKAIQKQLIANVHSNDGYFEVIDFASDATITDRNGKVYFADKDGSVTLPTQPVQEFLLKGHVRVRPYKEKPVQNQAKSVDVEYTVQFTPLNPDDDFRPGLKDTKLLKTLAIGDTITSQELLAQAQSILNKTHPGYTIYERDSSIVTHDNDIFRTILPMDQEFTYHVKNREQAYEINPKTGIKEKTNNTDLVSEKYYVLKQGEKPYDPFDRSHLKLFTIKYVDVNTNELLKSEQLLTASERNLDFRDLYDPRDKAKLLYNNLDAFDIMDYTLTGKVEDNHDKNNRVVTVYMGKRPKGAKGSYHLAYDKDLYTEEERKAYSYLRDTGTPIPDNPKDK

[11] = target: T7, Small ubiquitin-related modifier 2 (Homo sapiens, UniProt P61956); experiment: SUMO2–SIM peptide binding inhibitors, dose response, selectivity assay for SUMO1 interaction inhibitor project, biochemical, fluorescence polarization, uHTS hits (AID 624385); assay type: functional; settings: read-out: IC50_Mean
[12] = target: T8, Calpain-2 catalytic subunit (Sus scrofa, UniProt P43367); experiment: pig calpain II inhibitor potency, dose response, biochemical, fluorogenic peptide substrate (AID 1420); assay type: functional
T8 sequence (P43367 whole entry): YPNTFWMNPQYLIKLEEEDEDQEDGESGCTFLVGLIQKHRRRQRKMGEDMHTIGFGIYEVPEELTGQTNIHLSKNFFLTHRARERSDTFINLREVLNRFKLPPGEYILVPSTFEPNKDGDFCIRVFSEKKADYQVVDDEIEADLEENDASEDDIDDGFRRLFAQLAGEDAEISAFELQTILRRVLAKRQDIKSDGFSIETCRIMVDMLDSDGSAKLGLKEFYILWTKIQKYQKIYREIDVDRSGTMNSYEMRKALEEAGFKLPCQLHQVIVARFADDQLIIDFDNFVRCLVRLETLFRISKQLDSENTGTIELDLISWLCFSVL

[13] = target: T7, Small ubiquitin-related modifier 2; experiment: inhibitors of SUMO2 protein-protein interaction, dose response, selectivity assay for SUMO1 interaction inhibitor project, biochemical, FRET, human SUMO2, uHTS hits (AID 624384); assay type: functional; settings: read-out: IC50_Mean
[14] = target: T4, Dual specificity protein phosphatase 3; experiment: VHR1 phosphatase inhibitors, biochemical (AID 1878)
[15] = target: T9, Small ubiquitin-related modifier 1 (Homo sapiens, UniProt P63165); experiment: inhibitors of SUMO1 partner interactions, dose response, biochemical, FRET (AID 624383); assay type: functional; settings: read-out: IC50_Mean
[16] = target: T9, Small ubiquitin-related modifier 1; experiment: inhibitors of SUMO1 peptide binding, dose response, biochemical, fluorescence polarization, uHTS hits (AID 624382); assay type: functional; settings: read-out: IC50_Mean

T9 sequence (P63165 whole entry): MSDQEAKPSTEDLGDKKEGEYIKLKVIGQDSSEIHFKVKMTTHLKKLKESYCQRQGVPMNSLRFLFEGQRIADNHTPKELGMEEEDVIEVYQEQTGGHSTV
T7 sequence (P61956 whole entry): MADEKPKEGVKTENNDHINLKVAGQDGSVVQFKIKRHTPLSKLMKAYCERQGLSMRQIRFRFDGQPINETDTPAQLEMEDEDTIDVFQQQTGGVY
T4 sequence (P51452 whole entry): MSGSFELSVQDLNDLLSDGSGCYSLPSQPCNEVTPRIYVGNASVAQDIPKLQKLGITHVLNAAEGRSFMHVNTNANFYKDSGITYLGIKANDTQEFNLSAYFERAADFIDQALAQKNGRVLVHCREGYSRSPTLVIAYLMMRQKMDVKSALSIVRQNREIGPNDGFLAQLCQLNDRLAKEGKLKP
Chain of Lysine-specific demethylase 4A (O75164 whole entry, the tested form may be a part): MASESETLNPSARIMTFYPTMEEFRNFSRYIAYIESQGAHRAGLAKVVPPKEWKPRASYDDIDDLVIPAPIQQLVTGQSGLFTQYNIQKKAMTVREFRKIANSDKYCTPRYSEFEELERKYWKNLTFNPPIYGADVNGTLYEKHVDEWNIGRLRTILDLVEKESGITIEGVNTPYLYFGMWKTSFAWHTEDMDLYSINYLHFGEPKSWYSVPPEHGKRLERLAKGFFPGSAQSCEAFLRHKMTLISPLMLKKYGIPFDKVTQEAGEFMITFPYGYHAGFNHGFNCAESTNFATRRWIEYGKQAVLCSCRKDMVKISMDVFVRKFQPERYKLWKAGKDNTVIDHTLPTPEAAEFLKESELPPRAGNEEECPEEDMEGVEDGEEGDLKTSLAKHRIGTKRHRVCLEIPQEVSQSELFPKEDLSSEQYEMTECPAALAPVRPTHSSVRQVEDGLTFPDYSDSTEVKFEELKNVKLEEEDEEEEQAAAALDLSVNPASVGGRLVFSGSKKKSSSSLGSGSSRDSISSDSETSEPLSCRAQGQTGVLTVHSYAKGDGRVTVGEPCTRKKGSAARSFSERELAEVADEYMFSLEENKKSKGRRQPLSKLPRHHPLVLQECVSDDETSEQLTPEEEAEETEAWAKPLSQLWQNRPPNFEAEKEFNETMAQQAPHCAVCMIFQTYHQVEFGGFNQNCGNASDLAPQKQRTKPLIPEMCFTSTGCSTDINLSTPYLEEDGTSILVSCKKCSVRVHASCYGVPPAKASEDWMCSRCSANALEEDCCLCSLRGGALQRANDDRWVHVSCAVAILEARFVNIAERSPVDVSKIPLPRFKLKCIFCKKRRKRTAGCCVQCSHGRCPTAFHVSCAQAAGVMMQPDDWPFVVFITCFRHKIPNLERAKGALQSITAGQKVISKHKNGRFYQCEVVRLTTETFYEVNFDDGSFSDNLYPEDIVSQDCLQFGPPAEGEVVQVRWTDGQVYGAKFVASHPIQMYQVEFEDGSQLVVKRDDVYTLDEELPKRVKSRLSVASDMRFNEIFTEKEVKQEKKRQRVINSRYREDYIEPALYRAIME
Chain of Lysine-specific demethylase 4C (Q9H3R0 whole entry): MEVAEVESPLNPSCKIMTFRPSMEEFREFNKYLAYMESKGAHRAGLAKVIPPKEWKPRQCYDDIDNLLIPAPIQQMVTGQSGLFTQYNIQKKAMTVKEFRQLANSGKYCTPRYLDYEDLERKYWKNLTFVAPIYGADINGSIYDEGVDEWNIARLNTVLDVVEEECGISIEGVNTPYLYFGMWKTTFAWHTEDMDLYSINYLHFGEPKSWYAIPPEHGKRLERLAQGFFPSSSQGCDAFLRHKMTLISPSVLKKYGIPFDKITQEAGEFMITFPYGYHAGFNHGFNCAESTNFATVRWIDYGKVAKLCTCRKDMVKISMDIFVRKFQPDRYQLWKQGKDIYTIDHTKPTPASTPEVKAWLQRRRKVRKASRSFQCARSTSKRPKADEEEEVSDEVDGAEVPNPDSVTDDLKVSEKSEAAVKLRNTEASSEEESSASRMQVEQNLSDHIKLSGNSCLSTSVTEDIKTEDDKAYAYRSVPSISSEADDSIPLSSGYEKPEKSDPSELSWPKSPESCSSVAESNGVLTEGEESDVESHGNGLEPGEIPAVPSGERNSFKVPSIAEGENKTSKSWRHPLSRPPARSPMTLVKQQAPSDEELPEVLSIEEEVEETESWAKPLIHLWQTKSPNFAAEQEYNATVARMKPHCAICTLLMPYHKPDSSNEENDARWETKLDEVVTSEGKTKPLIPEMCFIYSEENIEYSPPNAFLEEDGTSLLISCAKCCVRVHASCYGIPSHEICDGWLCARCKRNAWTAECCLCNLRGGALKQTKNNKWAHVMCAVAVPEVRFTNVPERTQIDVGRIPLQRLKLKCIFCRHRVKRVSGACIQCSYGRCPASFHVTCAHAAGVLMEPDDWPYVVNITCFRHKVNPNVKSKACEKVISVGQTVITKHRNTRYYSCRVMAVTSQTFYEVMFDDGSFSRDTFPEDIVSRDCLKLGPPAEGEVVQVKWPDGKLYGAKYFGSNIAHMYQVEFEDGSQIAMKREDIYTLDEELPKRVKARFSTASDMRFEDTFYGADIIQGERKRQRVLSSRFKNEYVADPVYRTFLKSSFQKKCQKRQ
Chain of Genome polyprotein (P29990 2492-3391 limits assumed): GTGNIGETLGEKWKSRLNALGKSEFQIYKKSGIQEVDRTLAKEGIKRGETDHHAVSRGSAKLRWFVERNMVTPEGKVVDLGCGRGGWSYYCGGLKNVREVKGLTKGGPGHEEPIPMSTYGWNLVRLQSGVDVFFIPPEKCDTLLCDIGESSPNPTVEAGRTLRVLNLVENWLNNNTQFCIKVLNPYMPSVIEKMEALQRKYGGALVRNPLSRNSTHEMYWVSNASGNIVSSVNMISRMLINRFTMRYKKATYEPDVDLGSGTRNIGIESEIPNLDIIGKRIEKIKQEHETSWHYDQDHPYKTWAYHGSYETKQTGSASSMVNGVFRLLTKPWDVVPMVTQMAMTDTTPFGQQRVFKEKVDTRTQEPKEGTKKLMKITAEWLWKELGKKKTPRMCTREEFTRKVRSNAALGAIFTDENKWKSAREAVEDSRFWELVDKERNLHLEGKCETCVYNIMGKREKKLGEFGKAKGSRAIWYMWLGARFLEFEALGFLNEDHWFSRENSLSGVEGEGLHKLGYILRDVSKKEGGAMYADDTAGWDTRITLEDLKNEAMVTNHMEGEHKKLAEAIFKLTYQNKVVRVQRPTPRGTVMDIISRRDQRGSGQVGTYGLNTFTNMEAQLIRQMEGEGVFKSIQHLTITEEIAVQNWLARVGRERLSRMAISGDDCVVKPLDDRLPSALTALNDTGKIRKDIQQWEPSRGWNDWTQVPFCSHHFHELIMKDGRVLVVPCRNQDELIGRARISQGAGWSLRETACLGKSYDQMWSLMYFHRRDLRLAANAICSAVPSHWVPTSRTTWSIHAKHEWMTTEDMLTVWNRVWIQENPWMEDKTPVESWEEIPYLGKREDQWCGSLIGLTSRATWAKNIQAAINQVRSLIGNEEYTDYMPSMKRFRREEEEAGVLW

## CCOC(=O)C1=C(C)NC(=O)NC1c1c(C)nn(-c2ccccc2)c1Cl (stereo not given)
[1]
  AC50: 1.22 µM (active)
[2]
  IC50: 5.4 µM (active)
[3]
  AC50: 8.63 µM (active)

## COc1ccc2[nH]c3c(c2c1)CCNC3c1ccc([N+](=O)[O-])o1 (stereo not given)
[4]
  EC50: 5.82 µM (inconclusive)
[5]
  EC50: 4.34 µM (inconclusive)
Exodeoxyribonuclease V
  IC50: > 119 µM (inactive)
[6]
  EC50: 34.1 µM (active)
[7]
  IC50: > 119 µM (inactive)

## CSc1nc(SCC(=O)O)c2sc3nc(-c4ccccc4)c4c(c3c2n1)CCC4
[8]
  IC50: 5.06 µM (active)
[9]
  IC50: 96.5 µM (active)
Genome polyprotein
  IC50: 48.9 µM (active)
Streptococcus
  EC50: 6.54 µM (active)
[10]
  EC50: 1.41 µM (active)
Streptokinase A
  EC50: 7.33 µM (active)
[11]
  IC50: 5.38 µM (active)
[12]
  IC50: 3.74 µM (not active)
[13]
  IC50: 5.26 µM (active)
[14]
  IC50: 3.72 µM (active)
[15]
  IC50: 5.16 µM (active)
[16]
  IC50: 2.06 µM (active)
